Results as given in patent EP2958919B1, “DIHYDROPTERIDINONES I” (Boehringer Ingelheim International GmbH, priority 2013, dated 2014).

Experiments:
[1] = system: Aβ42; experiment: Aβ42 cellular assay in H4 neuroglioma cells stably expressing human APP695 (electrochemiluminescence, Meso Scale Discovery); type: cell-based; details: 22 hours incubation, supernatant
Procedure: (§1) Cells were plated out to near confluency. The compounds to be tested were received as 10 mM stocks in 100% DMSO. A dilution series was initially generated in 100% DMSO and then diluted 200-fold in cell culture media such that the tested concentration range was 30 µM to 0.1 nM and the final DMSO concentration was 0.5%. The diluted compounds were incubated with the cells for 22 hours in an incubator at 37°C and 5% CO2. Aβ42 as well as Aβ total levels were then measured post-incubation from the supernatant of the cells. Aβ42 levels were determined using a specific electrochemiluminescence assay provided by Meso Scale Discovery (Catalog # L21CA-1) according to the manufacturer's protocol. Aβ total levels were likewise determined using a specific electrochemiluminescence assay provided by Meso Scale Discovery (Catalog # L21ZA-1) according to the manufacturer's protocol.
(§2) In order to absolutely define the described compounds as modulators of γ-Secretase as opposed to simply inhibitors of γ-Secretase, measurements of not only Aβ42 but also Aβ total are performed.

[2] = system: Aβ total; experiment: Aβ total cellular assay in H4 neuroglioma cells stably expressing human APP695 (electrochemiluminescence), used for the ratio Aβ total IC50 / Aβ42 IC50; type: cell-based; details: higher ratio = more specific inhibition of Aβ42
Procedure: as §1, §2

IC50 [1] [nM]	Compound	Ratio Aβ(total)/Aβ42 [2]
64	CCc1nc(Nc2ccc(-n3cnc(C)c3)c(OC)c2)nc2c1N(C)C(=O)C1CCCCN21 (centres unmarked) [Example 36]	86
76	COc1cc(Nc2nc(CC(C)C)c3c(n2)N2CCCC2C(=O)N3C)ccc1-n1cnc(C)c1 (centres unmarked) [Example 33]	171
97	CCc1nc(Nc2ccc(-n3cnc(C)c3)c(OC)c2)nc2c1N(C)C(=O)[C@@H]1C[C@@H](OC)CN21 [Example 14]	67
299	CCc1nc(Nc2ccc(-n3cnc(C)c3)c(OC)c2)nc2c1NC(=O)[C@@H]1C[C@@H](OC)CN21 [Example 17]	68
293	CCc1nc(Nc2ccc(-c3ccnc(C)c3)cc2)nc2c1N(C)C(=O)C1CCCN21 (centres unmarked) [Example 8]	62
223	CCc1nc(Nc2ccc(-n3cnc(C)c3)c(OC)c2)nc2c1NC(=O)C1CC(OC)CCN21 (racemic) [Example 20]	30
97	COc1cc(Nc2ncc3c(n2)N2CCCC2C(=O)N3C)ccc1-n1cnc(C)c1 (centres unmarked) [Example 11]	>310
11400	CCN1C(=O)C2CCCCCN2c2nc(Nc3ccc(-n4cnc(C)c4)cc3OC)ncc21 (centres unmarked) [Example 5-7]	3
160	COc1cc(Nc2ncc3c(n2)N2CCCC2(C)C(=O)N3C)ccc1-n1cnc(C)c1 (centres unmarked) [Example 12]	147
1100	Cc1cn(-c2ccc(Nc3ncc4c(n3)N3CCCC3C(=O)N4C)cc2F)cn1 (centres unmarked) [Example 12-3]	>27
711	CCN1C(=O)C2CCCCCN2c2nc(Nc3ccc(-c4cnc(C)s4)c(OC)c3)ncc21 (centres unmarked) [Example 5-5]	13
172	CCN1C(=O)C2CCCCCN2c2nc(Nc3cnc(-n4cnc(C)c4)c(OC)c3)ncc21 (centres unmarked) [Example 5-4]	>175
105	CCc1nc(Nc2ccc(-n3cnc(C)c3)c(OC)c2)nc2c1N(C)C(=O)C1CC(OC)CCN21 (racemic) [Example 21]	98
398	CCN1C(=O)C2CCCCCN2c2nc(Nc3ccc(-c4ccnc(C)c4)cc3)ncc21 (centres unmarked) [Example 3]	17
720	CCCN1C(=O)C2CCCCCN2c2nc(Nc3ccc(-c4ccnc(C)c4)cc3)ncc21 (centres unmarked) [Example 5]	14
113	CCCN1C(=O)C2CCCCCN2c2nc(Nc3ccc(-n4cnc(C)c4)c(OC)c3)ncc21 (centres unmarked) [Example 4]	44
704	CCN1C(=O)C2CCCCCN2c2nc(Nc3ccc(-n4cnc(C)c4)cc3)ncc21 (centres unmarked) [Example 5-6]	43
166	CCc1nc(Nc2ccc(-n3cnc(C)c3)c(OC)c2)nc2c1N(C)C(=O)[C@@]1(C)C[C@@H](OC)CN21 [Example 24]	181
231	CCc1nc(Nc2ccc(-n3cnc(C)c3)c(OC)c2)nc2c1N(C)C(=O)C1COCCN21 (centres unmarked) [Example 29]	76
272	CCc1nc(Nc2ccc(-n3cnc(C)c3)c(OC)c2)nc2c1NC(=O)C1COCCN21 (centres unmarked) [Example 28]	29
265	CCN1C(=O)C2CCCCCN2c2nc(Nc3ccc(-n4cnc(C)n4)c(OC)c3)ncc21 (centres unmarked) [Example 5-3]	101
2940	COc1cc(Nc2ncc3c(n2)N2CCCC2C(=O)N3C)ccc1-n1cnc(C)n1 (centres unmarked) [Example 12-1]	>10
360	CCc1nc(Nc2ccc(-n3cnc(C)c3)c(OC)c2)nc2c1NC(=O)[C@@]1(C)[C@@H](OC)CN21 (racemic) [Example 27]	70
126	Cc1cn(-c2ccc(Nc3nc(CC(C)C)c4c(n3)N3CCCC3C(=O)N4C)cc2C#N)cn1 (centres unmarked) [Example 35]	71
540	COc1cc(Nc2ncc3c(n2)N2CCCOC2(C)C(=O)N3C)ccc1-n1cnc(C)c1 (centres unmarked) [Example 31]	55

IC50 [1] [nM]	Compound	Ratio Aβ(total)/Aβ42 [2]
222	CCc1nc(Nc2ccc(-n3cnc(C)c3)c(C#N)c2)nc2c1NC(=O)[C@@H]1C[C@@H](OC)CN21 [Example 16]	33
96	CCc1nc(Nc2ccc(-n3cnc(C)c3)c(OC)c2)nc2c1NC(=O)C1CCCN21 (centres unmarked) [Example 7]	98
175	CCN1C(=O)C2CCCCCN2c2nc(Nc3ccc(-n4ccnc4)c(OC)c3)ncc21 (centres unmarked) [Example 5-2]	64
320	COc1cc(Nc2nc(C(C)C)c3c(n2)N2CCN(C(=O)OC(C)(C)C)CC2C(=O)N3C)ccc1-n1cnc(C)c1 (centres unmarked) [Example 37]	12
63	COc1cc(Nc2nc(CC(C)C)c3c(n2)N2C[C@H](OC)C[C@]2(C)C(=O)N3C)ccc1-n1cnc(C)c1 [Example 26]	253
84	CCc1nc(Nc2ccc(-n3cnc(C)c3)c(OC)c2)nc2c1N(C)C(=O)C1CCCN21 (centres unmarked) [Example 6]	96
97	COc1cc(Nc2ncc3c(n2)N2CCCCCC2C(=O)N3C)ccc1-n1cnc(C)c1 (centres unmarked) [Example 2]	59
420	COc1cc(Nc2nc(SC)c3c(n2)N2CCCCC2C(=O)N3C)ccc1-n1cnc(C)c1 (centres unmarked) [Example 13]	14
201	CCc1nc(Nc2ccc(-n3cnc(C)c3)c(OC)c2)nc2c1N(CCOC)C(=O)[C@@H]1C[C@@H](OC)CN21 [Example 19-1]	131
145	CCc1nc(Nc2ccc(-n3cnc(C)c3)c(C#N)c2)nc2c1N(C)C(=O)[C@@H]1C[C@@H](OC)CN21 [Example 15]	36
1230	CCc1nc(Nc2ccc(-c3cnc(C)o3)nc2)nc2c1N(C)C(=O)C1CCCN21 (centres unmarked) [Example 9]	>24
145	CCc1nc(Nc2ccc(-n3cnc(C)c3)c(OC)c2)nc2c1N(C)C(=O)[C@]1(C)C[C@@H](OC)CN21 [Example 25]	73
140	CCc1nc(Nc2ccc(-c3cnc(C)o3)c(OC)c2)nc2c1N(C)C(=O)[C@@H]1C[C@@H](OC)CN21 [Example 18]	215
134	COc1cc(Nc2nc(C(C)C)c3c(n2)N2CCCC2C(=O)N3C)ccc1-n1cnc(C)c1 (centres unmarked) [Example 32]	66
312	COc1cc(Nc2ncc3c(n2)N2CCCOCC2C(=O)N3)ccc1-n1cnc(C)c1 (centres unmarked) [Example 30]	96
149	CCc1nc(Nc2ccc(-c3cnc(C)o3)c(OC)c2)nc2c1N(C)C(=O)C1CCCN21 (centres unmarked) [Example 10]	189
928	CC(C)Cc1nc(Nc2ccc(-c3cnn(C)c3)cc2)nc2c1N(C)C(=O)C1CCCN21 (centres unmarked) [Example 34]	30
818	CCc1nc(Nc2ccc(-n3cnc(C)c3)c(OC)c2)nc2c1NC(=O)[C@H]1[C@@H](c3ccc(F)cc3)CCN21 (racemic) [Example 22]	71
48	CCN1C(=O)C2CCCCCN2c2nc(Nc3ccc(-n4cnc(C)c4)c(OC)c3)ncc21 (centres unmarked) [Example 1]	127
5750	CN1C(=O)C2CCCN2c2nc(Nc3ccc(-c4cnn(C)c4)nc3)ncc21 (centres unmarked) [Example 12-2]	>5
364	CCc1nc(Nc2ccc(-c3cnc(C)o3)c(OC)c2)nc2c1NC(=O)[C@@H]1C[C@@H](OC)CN21 [Example 19]	82
754	COc1cc(Nc2ncc3c(n2)N2CCCC2C(=O)N3C)ccc1-n1ncnc1C (centres unmarked) [Example 12-4]	>39
72	COc1cc(Nc2ncc3c(n2)N2CCCCCC2C(=O)N3C(C)C)ccc1-n1cnc(C)c1 (centres unmarked) [Example 5-1]	109
70	CCc1nc(Nc2ccc(-n3cnc(C)c3)c(OC)c2)nc2c1N(C)C(=O)[C@H]1[C@H](c3ccc(F)cc3)CCN21 (racemic) [Example 23]	90
